Measured values as given in US8076338B2, “Kinase modulators and methods of use” (Exelixis, Inc., priority 2004, dated 2011).
Like-named read-outs stand apart in the source and are kept apart here.

Key:
AktK = AktK (Homo sapiens, UniProt P31749); test: Luciferase-coupled chemiluminescence kinase assay (ATP consumption); assay type: biochemical; conditions: read-out: AKT-1 IC50
Procedure, shortened: (§1)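 Enzyme at 2.5-5 nM was preincubated 30 min at room temperature with compound in Tris pH 7.5, MgCl2, TX-100, DTT, then reacted with ATP for 3 h at ambient temperature. Remaining ATP was quantified by luciferase-luciferin chemiluminescence, with consumption kept at 25-60%; […].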

p70S6K = p70S6K (Homo sapiens, UniProt P23443); test: as above; assay type: biochemical
Chain of p70S6K (P23443 whole entry): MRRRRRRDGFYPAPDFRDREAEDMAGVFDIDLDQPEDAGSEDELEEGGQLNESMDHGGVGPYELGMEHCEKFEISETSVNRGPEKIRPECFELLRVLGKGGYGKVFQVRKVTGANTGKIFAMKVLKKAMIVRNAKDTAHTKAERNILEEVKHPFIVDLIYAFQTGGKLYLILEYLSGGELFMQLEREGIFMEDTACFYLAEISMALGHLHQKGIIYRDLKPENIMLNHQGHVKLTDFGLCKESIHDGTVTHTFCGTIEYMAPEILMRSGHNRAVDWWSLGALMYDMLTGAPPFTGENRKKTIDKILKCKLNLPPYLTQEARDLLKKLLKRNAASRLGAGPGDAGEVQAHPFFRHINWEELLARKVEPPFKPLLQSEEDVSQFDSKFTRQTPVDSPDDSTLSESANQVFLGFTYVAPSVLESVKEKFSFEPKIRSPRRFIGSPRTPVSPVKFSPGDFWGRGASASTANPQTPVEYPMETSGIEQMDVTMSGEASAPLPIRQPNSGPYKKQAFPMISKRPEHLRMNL
Procedure, shortened: as §1

Chain of AktK (P31749 whole entry): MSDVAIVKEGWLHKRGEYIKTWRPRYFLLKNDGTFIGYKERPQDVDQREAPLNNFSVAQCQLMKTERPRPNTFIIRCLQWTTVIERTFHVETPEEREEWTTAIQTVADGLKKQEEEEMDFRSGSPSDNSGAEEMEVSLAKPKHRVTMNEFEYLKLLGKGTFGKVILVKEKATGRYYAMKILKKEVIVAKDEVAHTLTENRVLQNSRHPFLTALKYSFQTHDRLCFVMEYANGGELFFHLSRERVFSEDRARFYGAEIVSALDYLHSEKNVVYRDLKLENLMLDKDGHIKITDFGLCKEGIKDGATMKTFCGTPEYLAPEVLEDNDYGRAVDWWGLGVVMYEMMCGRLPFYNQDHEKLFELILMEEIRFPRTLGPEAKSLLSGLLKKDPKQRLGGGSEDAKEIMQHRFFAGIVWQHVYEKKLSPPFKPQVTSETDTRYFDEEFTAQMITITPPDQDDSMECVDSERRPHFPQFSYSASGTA

IC50 (AktK; Table 1, class symbols per key) | IC50 (p70S6K; Table 1, class symbols per key) | IC50 (AktK) | IC50 (p70S6K) | SMILES
 |  | 1000 to 10000 nM | < 100 nM | CCc1n[nH]c2ncnc(N3CCN(c4cc(Cl)c(OC)cc4C)CC3)c12 [Entry 390, 4-{4-[5-chloro-2-methyl-4-(methyloxy)phenyl]piperazin-1-yl}-3-ethyl-1H-pyrazolo[3,4-d]pyrimidine]
 |  | ≥ 10000 nM | 1000 to 10000 nM | Clc1ccccc1N1CCN(c2ncnc3[nH]cnc23)CC1 [Entry 299, 6-[4-(2-chlorophenyl)piperazin-1-yl]-9H-purine]
< 100 nM | < 100 nM |  |  | Cc1c(NCCN(C)C)cc(C(=O)NC(C)C)cc1N1CCN(c2ncnc3[nH]nc(Br)c23)CC1 [Entry 227, 3-[4-(3-bromo-1H-pyrazolo[3,4-d]pyrimidin-4-yl)piperazin-1-yl]-5-{[2-(dimethylamino)eth-yl]amino}-4-methyl-N-(1-methylethyl)benzamide]
 |  | 1000 to 10000 nM | 1000 to 10000 nM | CCc1nc(N2CCN(c3cc(Cl)ccc3C)CC2)c2cn[nH]c2n1 [Entry 325, 4-[4-(5-chloro-2-methylphenyl)piperazin-1-yl]-6-ethyl-1H-pyrazolo[3,4-d]pyrimidine]
 |  | 1000 to 10000 nM | 100 to 1000 nM | Cc1ccc(Cl)cc1N1CCN(c2ncnc3[nH]nc(C#CCN4CCN(C)CC4)c23)CC1 [Entry 398, 4-[4-(5-chloro-2-methylphenyl)piperazin-1-yl]-3-[3-(4-methylpiperazin-1-yl)prop-1-yn-1-yl]-1H-pyrazolo[3,4-d]pyrimidine]
< 100 nM | < 100 nM |  |  | CC(=O)c1cc(NCCN2CCCC2)c(C)c(N2CCN(c3ncnc4[nH]nc(Br)c34)CC2)c1 [Entry 252, 1-{3-[4-(3-bromo-1H-pyrazolo[3,4-d]pyrimidin-4-yl)piperazin-1-yl]-4-methyl-5-[(2-pyrrolidin-1-ylethyl)amino]phenyl}ethanone]
< 100 nM | < 100 nM |  |  | Cc1ccc(-c2ccccc2OCCCN(C)C)cc1N1CCN(c2ncnc3[nH]nc(Br)c23)CC1 [Entry 276, 3-({3′-[4-(3-bromo-1H-pyrazolo[3,4-d]pyrimidin-4-yl)piperazin-1-yl]-4′-methylbiphenyl-2-yl}oxy)-N,N-dimethylpropan-1-amine]
 |  | ≥ 10000 nM | 100 to 1000 nM | COc1ccccc1N1CCN(c2ncnc3[nH]cnc23)CC1 [Entry 307, 6-{4-[2-(methyloxy)phenyl]piperazin-1-yl}-9H-purine]
< 100 nM | < 100 nM |  |  | CCCC(=O)c1cc(NCCN2CCCC2)cc(N2CCN(c3ncnc4[nH]nc(Br)c34)CC2)c1 [Entry 283, 1-{3-[4-(3-bromo-1H-pyrazolo[3,4-d]pyrimidin-4-yl)piperazin-1-yl]-5-[(2-pyrrolidin-1-ylethyl)amino]phenyl}butan-1-one]
 |  | ≥ 10000 nM | 100 to 1000 nM | Clc1cccc(N2CCN(c3ncnc4[nH]cnc34)CC2)c1 [Entry 294, 6-[4-(3-chlorophenyl)piperazin-1-yl]-9H-purine]

More lines, now with the values behind:

SMILES | IC50 (AktK; Table 1, class symbols per key) | IC50 (p70S6K; Table 1, class symbols per key) | IC50 (AktK) | IC50 (p70S6K)
CCN1CCN(CCCOc2cc(Cl)cc(N3CCN(c4ncnc5[nH]nc(C(F)(F)F)c45)CC3)c2C)CC1 [Entry 71, 4-[4-(5-chloro-3-{[3-(4-ethylpiperazin-1-yl)propyl]oxy}-2-methylphenyl)piperazin-1-yl]-3-(trifluoromethyl)-1H-pyrazolo[3,4-d]pyrimidine] | 100 to 1000 nM | < 100 nM |  | 
Cc1c(Br)cc(Cl)cc1N1CCN(c2nc(N)nc3[nH]ncc23)CC1 [Entry 159, 4-[4-(3-bromo-5-chloro-2-methylphenyl)piperazin-1-yl]-1H-pyrazolo[3,4-d]pyrimidin-6-amine] | ≥ 10000 nM | 1000 to 10000 nM |  | 
Clc1cc(Cl)cc(N2CCN(c3ncnc4[nH]nc(Br)c34)CC2)c1 [Entry 128, 3-bromo-4-[4-(3,5-dichlorophenyl)piperazin-1-yl]-1H-pyrazolo[3,4-d]pyrimidine] | ≥ 10000 nM | 100 to 1000 nM |  | 
CCc1n[nH]c2ncnc(N3CCN(c4cc(Cl)cc(OC)c4)CC3)c12 [Entry 113, 4-{4-[3-chloro-5-(methyloxy)phenyl]piperazin-1-yl}-3-ethyl-1H-pyrazolo[3,4-d]pyrimidine] | ≥ 10000 nM | < 100 nM |  | 
Cc1ccc(Cl)cc1N1CCN(c2ncnc3[nH]nc(Br)c23)CC1=O [Entry 183, 4-(3-bromo-1H-pyrazolo[3,4-d]pyrimidin-4-yl)-1-(5-chloro-2-methylphenyl)piperazin-2-one] | ≥ 10000 nM | < 100 nM |  | 
CCc1n[nH]c2ncnc(N3CCN(c4cc(Cl)cc(NCCN(C)CC)c4C)CC3)c12 [Entry 147, N′-{5-chloro-3-[4-(3-ethyl-1H-pyrazolo[3,4-d]pyrimidin-4-yl)piperazin-1-yl]-2-methylphenyl}-N-ethyl-N-methylethane-1,2-diamine] | 100 to 1000 nM | < 100 nM |  | 
CCc1n[nH]c2ncnc(N3CCN(c4cccc(OC)c4C)CC3)c12 [Entry 145, 3-ethyl-4-{4-[2-methyl-3-(methyloxy)phenyl]piper-azin-1-yl}-1H-pyrazolo[3,4-d]pyrimidine] | ≥ 10000 nM | < 100 nM |  | 
CCc1n[nH]c2ncnc(N3CCN(c4cc(Cl)ccc4C)CC3)c12 [Entry 323, 4-[4-(5-chloro-2-methylphenyl)piperazin-1-yl]-3-ethyl-1H-pyrazolo[3,4-d]pyrimidine] |  |  | 1000 to 10000 nM | < 100 nM
Brc1ccc(N2CCN(c3ncnc4[nH]nc(Br)c34)CC2)cc1 [Entry 157, 3-bromo-4-[4-(4-bromophenyl)piperazin-1-yl]-1H-pyrazolo[3,4-d]pyrimidine] | ≥ 10000 nM | 100 to 1000 nM |  | 
CCc1n[nH]c2ncnc(N3CCN(c4nc(C)cc(C)n4)CC3)c12 [Entry 111, 4-[4-(4,6-dimethylpyrimidin-2-yl)piperazin-1-yl]-3-ethyl-1H-pyrazolo[3,4-d]pyrimidine] | ≥ 10000 nM | 1000 to 10000 nM |  | 
Cc1c(OCCN2CCCCC2)cc(Cl)cc1N1CCN(c2ncnc3[nH]nc(Br)c23)CC1 [Entry 20, 3-bromo-4-(4-{5-chloro-2-methyl-3-[(2-piperidin-1-ylethyl)oxy]phenyl}piperazin-1-yl)-1H-pyrazolo[3,4-d]pyrimidine] | 100 to 1000 nM | < 100 nM |  | 
Cc1c(NCCN2CCCC2)cc(-c2nccs2)cc1N1CCN(c2ncnc3[nH]nc(Br)c23)CC1 [Entry 233, 3-[4-(3-bromo-1H-pyrazolo[3,4-d]pyrimidin-4-yl)piperazin-1-yl]-2-methyl-N-(2-pyrrolidin-1-ylethyl)-5-(1,3-thiazol-2-yl)aniline] | < 100 nM | < 100 nM |  | 
Cc1c(NCCN2CCCC2)cc(C(=O)Nc2ccccc2Cl)cc1N1CCN(c2ncnc3[nH]nc(Br)c23)CC1 [Entry 204, 3-[4-(3-bromo-1H-pyrazolo[3,4-d]pyrimidin-4-yl)piperazin-1-yl]-N-(2-chlorophenyl)-4-methyl-5-[(2-pyrrolidin-1-ylethyl)amino]benzamide] | < 100 nM | < 100 nM |  | 
Cc1c(NCCN(C)C(C)C)cc(Cl)cc1N1CCN(c2ncnc3[nH]nc(Br)c23)CC1 [Entry 193, N′-{3-[4-(3-bromo-1H-pyrazolo[3,4-d]pyrimidin-4-yl)piperazin-1-yl]-5-chloro-2-methylphenyl}-N-methyl-N-(1-methylethyl)ethane-1,2-diamine] | < 100 nM | < 100 nM |  | 
Cc1ccc(Cl)cc1N1CCN(c2ncnc3[nH]nc(-c4cccc(O)c4)c23)CC1 [Entry 335, 3-{4-[4-(5-chloro-2-methylphenyl)piperazin-1-yl]-1H-pyrazolo[3,4-d]pyrimidin-3-yl}phenol] |  |  | 1000 to 10000 nM | 100 to 1000 nM
Clc1ccc(N2CCN(c3ncnc4[nH]nc(Br)c34)CC2)cc1Cl [Entry 75, 3-bromo-4-[4-(3,4-dichlorophenyl)piperazin-1-yl]-1H-pyrazolo[3,4-d]pyrimidine] | ≥ 10000 nM | 100 to 1000 nM |  | 
Cc1ccc(Cl)cc1N1CCN(c2ncnc3[nH]nc(Br)c23)C[C@H]1C [Entry 176, 3-bromo-4-[(3R)-4-(5-chloro-2-methylphenyl)-3-methylpiperazin-1-yl]-1H-pyrazolo[3,4-d]pyrimidine] | ≥ 10000 nM | 100 to 1000 nM |  | 
Cc1c(NCCN2CCCC2)cc(OC(F)F)cc1N1CCN(c2ncnc3[nH]nc(Br)c23)CC1 [Entry 253, 3-[4-(3-bromo-1H-pyrazolo[3,4-d]pyrimidin-4-yl)piperazin-1-yl]-5-[(difluoromethyl)oxy]-2-methyl-N-(2-pyrrolidin-1-ylethyl)aniline] | < 100 nM | < 100 nM |  | 
Cc1c(CCCN2CCOCC2)cc(Cl)cc1N1CCN(c2ncnc3[nH]nc(Br)c23)CC1 [Entry 18, 3-bromo-4-{4-[5-chloro-2-methyl-3-(3-morpholin-4-ylpropyl)phenyl]piperazin-1-yl}-1H-pyrazolo[3,4-d]pyrimidine] | 100 to 1000 nM | < 100 nM |  | 
Cc1c(OCC2CCN(C)CC2)cc(Cl)cc1N1CCN(c2ncnc3[nH]nc(C(F)(F)F)c23)CC1 [Entry 90, 4-[4-(5-chloro-2-methyl-3-{[(1-methylpiperidin-4-yl)methyl]oxy}phenyl)piperazin-1-yl]-3-(trifluoro-methyl)-1H-pyrazolo[3,4-d]pyrimidine] | 100 to 1000 nM | < 100 nM |  | 
Cc1c(OCCCN2CCCCC2)cc(Cl)cc1N1CCN(c2ncnc3[nH]nc(Br)c23)CC1 [Entry 37, 3-bromo-4-(4-{5-chloro-2-methyl-3-[(3-piperidin-1-ylpropyl)oxy]phenyl}piperazin-1-yl)-1H-pyrazolo[3,4-d]pyrimidine] | 100 to 1000 nM | < 100 nM |  | 
Cc1c(NCCN2CCCC2)cc(C(=O)N(C)C)cc1N1CCN(c2ncnc3[nH]nc(Br)c23)CC1 [Entry 198, 3-[4-(3-bromo-1H-pyrazolo[3,4-d]pyrimidin-4-yl)piperazin-1-yl]-N,N,4-trimethyl-5-[(2-pyrrolidin-1-ylethyl)amino]benzamide] | 100 to 1000 nM | < 100 nM |  | 
